{"source": "paper PMC12662848", "about": "(Cancer Chemotherapy and Pharmacology, 2025)", "key": {"[1]": {"system": "BCL-2", "experiment": "Western blotting of BCL-2α/β proteins and cleaved caspase-3 in healthy donor PBMCs treated ex vivo with ABT-199", "type": "cell-based, human", "conditions": "1 µM", "method": "(§1) PBMCs from the trial patients or healthy donors were isolated from whole blood using Lymphoprep™ ([…] Technologies, Cat. #07801) following the manufacturer’s protocol. Whole blood was diluted 1:1 with room temperature phosphate-buffered saline (PBS) containing 2% fetal bovine serum (FBS) and carefully layered over an equal volume of Lymphoprep™ in a 50 mL conical tube. Samples were centrifuged at 800 × g for 20–30 min at room temperature with the brake off. The PBMC layer formed at the interface between the plasma and Lymphoprep™ was gently collected and transferred to a new tube. Cells were washed once with PBS containing 2% FBS by centrifugation at 300 × g for 10 min, and the final pellet was resuspended in DMEM media for downstream culture.\n(§2) ABT-199 (S8048, Selleck Chemicals) was dissolved in DMSO. Healthy donor PBMCs were seeded at a density of 2 × 10⁶ cells per 60 mm dish and treated with 1 μM of ABT-199 for various time intervals (i.e., 2, 4, 8, and 24 h). At the end of each time point, PBMCs were harvested for protein and RNA extraction (below). All treatments were performed in 3–6 biological replicates and control samples were treated with vehicle (DMSO) only.\nPBMC samples from above were harvested using 0.1% trypsin–EDTA solution (Gibco) and centrifuged (1,000 rcf, 4 min, 4 °C), washed with DPBS (Gibco), centrifuged again (1,000 rcf, 4 min, 4 °C), and the pellet was lysed in denaturing buffer containing Halt protease inhibitor cocktail (Thermo Fisher Scientific; Cat# SD-001/SN-002) for 15 min on ice. After centrifugation (15,000 rcf, 15 min, 4 °C), an aliquot of the supernatant was taken to determine the protein concentration using a BCA Protein Assay Kit (Thermo Fisher Scientific). Protein samples were mixed in NuPAGE LDS buffer and 1 × reducing agent (Invitrogen) and denatured at 95 °C for 5 min. Proteins separated by sodium dodecyl sulfate–polyacrylamide gel electrophoresis (SDS-PAGE) were transferred to a nitrocellulose membrane at 110 V for 110 min in a wet tank transfer system (Surelock system, Invitrogen). […]"}, "[2]": {"system": "BCL-2β mRNA", "experiment": "qPCR analysis of BCL-2β mRNA in healthy donor PBMCs treated ex vivo with ABT-199", "type": "cell-based, human", "conditions": "1 µM; for BCL-2β mRNA levels: 2–4 h post-treatment", "method": "as §1, §2\nWe developed a qPCR-based strategy to quantitatively analyze the BCL-2α/β mRNA levels in control and ABT-199 treated PBMCs (above). Briefly, total RNA was extracted using the PicoPure™ RNA Isolation Kit (Thermo Fisher Scientific, cat# KIT0204) with on-column DNase treatment. cDNA was synthesized from 750 ng RNA using SuperScript™ IV VILO™ Master Mix (Thermo Fisher Scientific, cat# 11,756,050). Quantitative PCR was performed using TaqMan Gene Expression Assays (Bio-Rad) with a FAM-conjugated custom probe specific for the BCL-2β isoform (5’-[…]-3’; Bio-Rad, part# 10,031,261). […] Reactions were run on the QuantStudio™ 6 Flex Real-Time PCR System (Applied Biosystems) under standard cycling conditions. Relative expression was calculated using the 2^–ΔΔCt method normalized to the 0-h (untreated) control. All conditions were tested in technical triplicates from 3–6 independent experiments."}, "[3]": {"system": "CLL", "conditions": "cited from earlier work"}, "[4]": {"design": "method as in PMID 34416076", "conditions": "cited from earlier work"}, "[5]": {"conditions": "cited from earlier work"}, "[6]": {"system": "AR−/lo LAPC9-CRPC", "design": "method as in PMID 30190514", "conditions": "single agent; cited from earlier work"}}, "data": [{"smiles": "CC1(C)CCC(CN2CCN(c3ccc(C(=O)NS(=O)(=O)c4ccc(NCC5CCOCC5)c([N+](=O)[O-])c4)c(Oc4cnc5[nH]ccc5c4)c3)CC2)=C(c2ccc(Cl)cc2)C1", "note": "[venetoclax]", "values": [{"measurement": "Apoptosis: active (cleaved) caspase-3", "setting": "[1]; PBMCs from all 3 healthy donors", "value": "increased active (cleaved) caspase-3"}, {"measurement": "BCL-2β protein levels and BCL-2β/BCL-2α ratios", "setting": "[1]; all 3 healthy donor PBMCs, from 2 h up to 8 h", "value": "upregulated BCL-2β protein levels and increased the BCL-2β/BCL-2α ratios"}, {"measurement": "BCL-2α/BCL-2β proteins", "setting": "[1]; healthy donor PBMCs, ≥ 24 h post treatment", "value": "lost and undetectable"}, {"measurement": "BCL-2β mRNA levels", "setting": "[2]", "value": "induced"}, {"measurement": "BCL-2β mRNA levels", "setting": "[2]; listed as Venetoclax", "value": "increased significantly"}, {"measurement": "BCL-2β mRNA", "setting": "[2]; ≥ 24 h post treatment", "value": "undetectable"}, {"measurement": "Average steady-state venetoclax concentration required for a 50% tumor shrinkage", "setting": "[3]", "value": 146, "unit": "µg/L"}, {"measurement": "Average steady-state venetoclax concentration that decreases lymphocyte counts by 50% from baseline", "setting": "[3]", "value": 8.63, "unit": "µg/L"}, {"measurement": "Extension of PFS with a doubling of dose", "setting": "[3]", "value": 6, "unit": "months"}, {"measurement": "Permeability", "setting": "[4]", "value": "low"}, {"measurement": "Solubility", "setting": "[4]", "value": "low"}, {"measurement": "Absolute bioavailability", "setting": "[5]", "value": "~ 5%"}, {"measurement": "Less than expected exposure when doubling dose", "setting": "[5]; from 400 to 800 mg, population PK report", "value": 12, "unit": "%"}, {"measurement": "Cmax", "setting": "[5]; previous values, 800 mg dose", "value": 3740, "unit": "ng/mL"}, {"measurement": "Cmin", "setting": "[5]; previous values, 800 mg dose", "value": 1430, "unit": "ng/mL"}, {"measurement": "Venetoclax half-life", "setting": "[5]; previously reported in AML patients", "value": "14 to 26", "unit": "h"}, {"measurement": "Venetoclax clearance", "setting": "[5]; previously reported", "value": 413, "unit": "L/day"}, {"measurement": "Growth of AR−/lo LAPC9-CRPC", "setting": "[6]", "value": "greatly inhibited"}]}]}
